Legend:
[1] = test system: adenylyl cyclase subtype 8; test: Biochemical screening test for AC8 inhibitors (cAMP assay in HEK293 cells expressing ACs); assay type: cell-based; settings: 100 μM
Protocol: (§1) For AC8 expression vector pcDNA3-AC1 transfection, HEK293 cells were plated onto 60-mm-diameter dishes at a density of 1×10^6 per plate, grown overnight and transfected with pcDNA3-AC1 (0.8 μg DNA per plate) by Lipofectamine 2000 (Invitrogen). Stable transfected clones were selected in culture media containing 0.8 mg/ml G418 (Invitrogen, CA) and maintained in this media. For transient expression of other AC isoforms in HEK293 cells, HEK293 cells were plated in 96 well tissue culture dishes and transfected with plasmids for AC5, respectively, experiments were carried out at 48 h after transfection.
(§2) The HEK293 cells expressing ACs were harvested and lysed in 0.1 M HCl after different treatments. Direct cAMP measurements were performed using the direct cAMP enzyme immunoassay kit (Assay Designs, MI) and optical density values were measured at 405 nm by the microplate reader. Phosphodiesterase was inhibited by the addition of 1 mM 3-isobutyl-1 methylxanthine (Sigma, Mo.) to cultures.
The HEK293 cells were subcultured into 96-well plates in the absence of antibiotics and grown overnight and transfected with the pGL3-CRE-firefly luciferase and pGL3-CMV-Renilla luciferase constructs (0.25 μg DNA per well) by Lipofectamine 2000 reagent. The transfected cells were incubated overnight, and media were changed to DMEM containing 10% fetal bovine serum. After 48 h, the cells were treated with 10 μM forskolin, 10 μM A23187 and 2 mM CaCl2, or a combination of 10 μM forskolin, 10 μM A23187 and 2 mM CaCl2, in the absence or presence of each chemical tested at the concentration of 100 μM. At the end of 6 hours, incubation cells were harvested and luciferase activity was assayed by Dual-Luciferase Reporter Assay System (Promega). Relative light units were measured using a SIRIUS luminometer.
A set of biochemical screening tests were carried out to search for potential selective AC8 inhibitors. cAMP assay, gene-activation (pCREB) assay in AC8 expressed cell lines, as well as integrative physiological experiments were employed to screen for potential AC8 inhibitors. The effect of Compound A and B on AC8 was determined.

wild-type mice = test: Open field test, animal model of behavioral anxiety; assay type: in vivo; design: anti-anxiety effects in the open field test: dose or concentration left out as unconfirmed
Description: Animals were placed in the open field immediately after an IP injection. […] B) Mice injected with AC8 inhibitor (filled circles) traveled more than control mice injected with saline (open circles). *P<0.05
A round, green, plastic tub with diameter 43.5 cm was used to create an open arena for the mouse to travel. The floor was made of clear Plexiglas. Each trial consisted of exposing the mouse to a bright light (685 lux) in the arena for the first minute, followed immediately by exposing the mouse only to dim light (1 lux) for another minute. The mouse's movements were captured using video camera tracking software (Ethovision, Noldus Va.) and the distance from the border of the arena, the distance from the centre of the arena, and the total distance traveled were measured. The percent difference in these factors between bright and dim light periods were also calculated. After each 2 min testing session, the mouse was removed and placed back in its home cage and the arena was cleaned with 70% ethanol solution.

[2] = target: T1, adenylyl cyclase subtype 5 (Homo sapiens, UniProt O95622); test: Biochemical screening test, AC5 transiently expressed in HEK293 cells; assay type: cell-based; settings: read-out: Percent Inhibition AC5
T1 construct: expressed in transfected cells; host or cells: HEK293 (transient, 48 h)
Protocol: as §1, §2
The HEK293 cells were subcultured into 96-well plates in the absence of antibiotics and grown overnight and transfected with the pGL3-CRE-firefly luciferase and pGL3-CMV-Renilla luciferase constructs (0.25 μg DNA per well) by Lipofectamine 2000 reagent. […] Relative light units were measured using a SIRIUS luminometer.

mice = test: Behavioral itching test (scratching induced by intradermal compound 48/80); assay type: in vivo
Description: Data are presented as mean±SEM.
Mutant KO mice and littermate wild-type mice were used in the behaviour experiments. Mice were shaved at the back of the neck where intradermal injections of compound 48/80, which releases histamine from the mast cells, were then given.

T1 sequence (O95622 whole entry): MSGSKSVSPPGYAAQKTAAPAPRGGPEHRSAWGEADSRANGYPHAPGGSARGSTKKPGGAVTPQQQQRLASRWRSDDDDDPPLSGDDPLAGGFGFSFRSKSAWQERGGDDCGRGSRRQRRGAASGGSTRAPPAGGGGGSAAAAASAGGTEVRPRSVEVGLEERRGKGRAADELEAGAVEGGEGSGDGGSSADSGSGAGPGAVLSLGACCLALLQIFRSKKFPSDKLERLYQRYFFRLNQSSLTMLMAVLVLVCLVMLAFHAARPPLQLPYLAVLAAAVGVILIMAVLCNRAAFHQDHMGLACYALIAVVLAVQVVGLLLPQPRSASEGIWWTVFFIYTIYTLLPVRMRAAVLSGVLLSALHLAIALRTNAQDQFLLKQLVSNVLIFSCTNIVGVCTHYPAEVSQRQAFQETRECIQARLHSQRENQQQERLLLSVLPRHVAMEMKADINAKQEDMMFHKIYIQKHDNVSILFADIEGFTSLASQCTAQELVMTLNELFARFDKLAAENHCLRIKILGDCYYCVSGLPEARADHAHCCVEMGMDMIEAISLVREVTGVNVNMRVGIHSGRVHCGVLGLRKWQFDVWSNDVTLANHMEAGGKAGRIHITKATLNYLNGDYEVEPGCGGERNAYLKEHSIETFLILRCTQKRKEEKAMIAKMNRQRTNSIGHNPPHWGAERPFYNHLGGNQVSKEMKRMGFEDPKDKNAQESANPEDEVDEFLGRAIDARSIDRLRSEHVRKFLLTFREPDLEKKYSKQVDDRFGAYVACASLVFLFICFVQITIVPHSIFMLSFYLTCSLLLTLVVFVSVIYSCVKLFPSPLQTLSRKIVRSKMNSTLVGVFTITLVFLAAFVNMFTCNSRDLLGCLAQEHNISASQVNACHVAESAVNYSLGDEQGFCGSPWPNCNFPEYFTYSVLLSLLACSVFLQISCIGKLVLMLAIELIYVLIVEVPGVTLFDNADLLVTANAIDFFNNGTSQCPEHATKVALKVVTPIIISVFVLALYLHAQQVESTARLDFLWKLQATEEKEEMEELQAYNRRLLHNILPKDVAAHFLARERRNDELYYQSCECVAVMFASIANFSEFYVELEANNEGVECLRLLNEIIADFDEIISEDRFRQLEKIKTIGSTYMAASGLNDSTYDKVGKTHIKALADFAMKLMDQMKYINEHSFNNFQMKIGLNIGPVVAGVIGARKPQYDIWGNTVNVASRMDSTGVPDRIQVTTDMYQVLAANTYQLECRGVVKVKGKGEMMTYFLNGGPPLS

inhibition at 100 µM [2]	SMILES	Percent Inhibition AC8 [1]	inhibition of AC8 activity [1]	ambulatory counts in open field (wild-type mice; 5 mg/kg, i.p., placed in open field immediately after injection, vs saline, n=6, P<0.05)	distance traveled in open field (wild-type mice; 5 mg/kg, i.p., vs saline, P<0.05)	anti-anxiety effects in the open field test (wild-type mice; systemic injection, n=7 mice)	total scratching responses induced by intradermal compound 48/80 (100 μg/50 μl) (mice; 5 mg/kg i.p., n=6 mice vs wild-type mice n=7, P<0.05)	anti-itching effects in the itching test (mice; systemic injection 5 mg/kg)
25 ± 4%	Cc1ccc(OCCn2c(S)nc3c(N)ncnc32)cc1 [Compound A, 6-amino-9-(2-p-tolyloxy-ethyl)-9H-purine-8-thiol]	88 ± 2% inhibition	significant inhibition	significantly more ambulatory counts	traveled more	significant anti-anxiety effects	significantly reduced	significant anti-itching effects
–	c1nc(N2CCOCC2)c2nc[nH]c2n1 [Compound B, 4-(9H-purin-6-yl)morpholine]	86 ± 2%	significant inhibition	–	–	–	–	–
